Laboratory results as given in patent US20250129104A1, “7H-PYRROLO[2,3-D]PYRIMIDINES AND PREPARATION AND USES THEREOF” (BioSplice Therapeutics, Inc., priority 2021, published 2025).

Columns and labels:
[1] = target: recombinant DYRK1A kinase (Homo sapiens (Human), UniProt Q13627); test: DYRK1A kinase assay (Ser/Thr 18 peptide Z-lyte FRET assay); assay type: biochemical; conditions: DYRK1A kinase activity; 15 μM ATP, 1 h room temperature; method text calls the value IC50
Procedure, shortened: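 Recombinant human DYRK1A (0.25 μg/mL) with 15 μM ATP and 4 μM Ser/Thr 18 peptide, 1 h at room temperature with compound (11-point, 1:3, 10 μM top, duplicate). Z-lyte development 1 h, then coumarin/fluorescein FRET emission ratio converted to % phosphorylation; IC50 by non-linear regression.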

[2] = test system: Tau phosphorylation at Thr212 (pThr212); test: tau phosphorylation assay: phosphoTau (Thr212) AlphaLISA in HEK293T cells transfected with DYRK1A and MAPT; assay type: cell-based; conditions: HEK-293T; HEK293T cells transfected with human DYRK1A and MAPT; 18-24 h compound treatment; read-out: pTau (Thr212) EC50
Experimental: Representative compounds were screened using the assay procedure for tau phosphorylation activity described below.
HEK293T cells (ATCC, CRL3216) cultured in DMEM (Thermo Fisher Scientific, 10566024) supplemented with 10% FBS (Corning, 35-011-CV) and Penicillin/Streptomycin (Thermo Fisher Scientific, 15140163) were seeded in a 75 cm^2 flask at 8.1×10^6 cells/flask. The HEK293T cells were then transiently transfected with 5 μg DYRK1A (NM_001396) human untagged clone (OriGene, SC314641) and 2.5 μg MAPT (441 a.a. Tau gene) (NM_005910) human untagged clone (OriGene, TP313312) using Lipofectamine 3000 (Thermo Fisher Scientific, L30000015) and incubated for 20-30 hours in a humidified incubator at 37° C. and 5% CO2. Post-incubation, HEK293T cells transfected with the DYRK1A and MAPT expression vectors were harvested and seeded in BioCoat poly-D lysine coated 96-well plates (Corning, 354461) at 3×10^4 cells/well.
The above synthesized compounds were screened using the cell assay procedure to assess decreased Tau phosphorylation at Thr212 (pThr212) described below.
Each compound was dissolved in DMSO (Sigma-Aldrich, D8418-100 mL) as a 10 mM stock. 10 mM stocks were serially diluted 1:3, 10-point dose-response curve and added to the cells with a final concentration ranging from 20 μM to 1.1 nM. Cell were treated with compounds in duplicate and incubated for 18-24 hours in a humidified incubator at 37° C. and 5% CO2.
Following the overnight compound treatment, cells were lysed with 1× Alpha Surefire Ultra Lysis Buffer (Perkin Elmer, ALSU-LB-100ML) complemented with 1× Halt Phosphatase Inhibitor Cocktail (Thermo Fisher Scientific, 78427) and 1× Halt Protease Inhibitor Cocktail (Thermo Fisher Scientific, 78438). Lysates were spun down at 12,000 g for 10 min to remove any cellular debris and 5 μL of lysates were dispensed into a 384-well Opti-Plate (Perkin Elmer, 6007290) for the measurement of Tau phosphorylation in the phosphoTau (Thr212) AlphaLISA assay. Donor antibody, biotinylated HT7Tau (Thermo Fisher Scientific, MN1000B), and acceptor antibody, pThr212Tau (Thermo Fisher Scientific, 44740G) were both added to the cell lysates at a final concentration of 3 nM and incubated for 1 hour at room temperature. Following incubation of the lysates with the donor and acceptor antibodies, anti-rabbit IgG (Fc specific) AlphaLISA acceptor beads (Perkin Elmer, AL104C) were added at a 10 μg/mL final concentration and incubated for 1 hour at room temperature protected from light. Lastly, AlphaScreen streptavidin donor beads (PerkinElmer, 6760002) were added at 40 μg/mL final concentration and incubated for 1 hour at room temperature protected from light. Plates were read at […], and Em=615 nm on the EnVision Multilabel Plate Reader (Perkin Elmer). PhosphoTau (Thr212) AlphaLISA signal was used to plot, draw the curve fitting, and determine each compound's EC50 in Prism (GraphPad).

| SMILES | EC50 [1] | EC50 [2] |
| --- | --- | --- |
| Cc1nc2c(F)cc(-c3c[nH]c4nc(C5CCC5)ncc34)cc2n1C(C)C [Compound 500, 2-Cyclobutyl-5-(4-fluoro-1-isopropyl-2-methyl-1H-benzo[d]imidazol-6-yl)-7H-pyrrolo[2,3-d]pyrimidine] | 19.8 nM | 338 nM |
| Cc1nc2c(F)cc(-c3c[nH]c4nc(NCC(C)(C)C)ncc34)cc2n1C(C)C [Compound 507, 5-(4-Fluoro-1-isopropyl-2-methyl-1H-benzo[d]imidazol-6-yl)-N-neopentyl-7H-pyrrolo[2,3-d]pyrimidin-2-amine] | 7.2 nM | 37 nM |
| Cc1nc2c(F)cc(-c3c[nH]c4nc(C5CC5)ncc34)cc2n1C1CCN(C)CC1 [Compound 544, 2-Cyclopropyl-5-(4-fluoro-2-methyl-1-(1-methylpiperidin-4-yl)-1H-benzo[d]imidazol-6-yl)-7H-pyrrolo[2,3-d]pyrimidine] | 12.2 nM | 408 nM |
| Cc1nc2ncc(-c3c[nH]c4nc(C5CCC5)ncc34)cc2n1C(C)C [Compound 588, 6-(2-Cyclobutyl-7H-pyrrolo[2,3-d]pyrimidin-5-yl)-1-isopropyl-2-methyl-1H-imidazo[4,5-b]pyridine] | 25 nM | 1470 nM |
| Cc1nc2ccc(-c3c[nH]c4nc(NCC(C)(C)F)ncc34)nc2n1C [Compound 629, 5-(2,3-Dimethyl-3H-imidazo[4,5-b]pyridin-5-yl)-N-(2-fluoro-2-methylpropyl)-7H-pyrrolo[2,3-d]pyrimidin-2-amine] | 531 nM | 28 nM |
| Cc1nc2ccc(-c3c[nH]c4nc(N[C@H](C)C(F)(F)F)ncc34)nc2n1CC(F)F [Compound 646, (R)-5-(3-(2,2-Difluoroethyl)-2-methyl-3H-imidazo[4,5-b]pyridin-5-yl)-N-(1,1,1-trifluoropropan-2-yl)-7H-pyrrolo[2,3-d]pyrimidin-2-amine] | 5.6 nM | 6 nM |
| Cc1nc2ccc(-c3c[nH]c4nc(CC(C)C)ncc34)nc2n1C(C)C [Compound 674, 5-(2-Isobutyl-7H-pyrrolo[2,3-d]pyrimidin-5-yl)-3-isopropyl-2-methyl-3H-imidazo[4,5-b]pyridine] | 5.1 nM | 72 nM |
| CC(C)Nc1ncc2c(-c3ccc4ncnn4c3)c[nH]c2n1 [Compound 726, 5-([1,2,4]Triazolo[1,5-a]pyridin-6-yl)-N-isopropyl-7H-pyrrolo[2,3-d]pyrimidin-2-amine] | 22.4 nM | 815 nM |
| CC(C)CNc1ncc2c(-c3ccc4ncnn4c3)c[nH]c2n1 [Compound 727, 5-([1,2,4]Triazolo[1,5-a]pyridin-6-yl)-N-isobutyl-7H-pyrrolo[2,3-d]pyrimidin-2-amine] | 6.9 nM | 78 nM |
| FC(F)CNc1ncc2c(-c3ccc4ncnn4c3)c[nH]c2n1 [Compound 730, 5-([1,2,4]Triazolo[1,5-a]pyridin-6-yl)-N-(2,2-difluoroethyl)-7H-pyrrolo[2,3-d]pyrimidin-2-amine] | 33.6 nM | 504 nM |
| CC(C)(F)CNc1ncc2c(-c3ccc4ncnn4c3)c[nH]c2n1 [Compound 731, 5-([1,2,4]Triazolo[1,5-a]pyridin-6-yl)-N-(2-fluoro-2-methylpropyl)-7H-pyrrolo[2,3-d]pyrimidin-2-amine] | 8.6 nM | 199 nM |
| CC(F)(F)CNc1ncc2c(-c3ccc4ncnn4c3)c[nH]c2n1 [Compound 732, 5-([1,2,4]Triazolo[1,5-a]pyridin-6-yl)-N-(2,2-difluoropropyl)-7H-pyrrolo [2,3-d]pyrimidin-2-amine] | 11.7 nM | 191 nM |
| C[C@@H](Nc1ncc2c(-c3ccc4ncnn4c3)c[nH]c2n1)C(F)(F)F [Compound 734, (R)-5-([1,2,4]Triazolo[1,5-a]pyridin-6-yl)-N-(1,1,1-trifluoropropan-2-yl)-7H-pyrrolo[2,3-d]pyrimidin-2-amine] | 18.7 nM | 335 nM |
| FC1(CNc2ncc3c(-c4ccc5ncnn5c4)c[nH]c3n2)CC1 [Compound 739, 5-([1,2,4]Triazolo[1,5-a]pyridin-6-yl)-N-((1-fluorocyclopropyl)methyl)-7H-pyrrolo[2,3-d]pyrimidin-2-amine] | 32.6 nM | 265 nM |
| C[C@@H](Nc1ncc2c(-c3ccc4ncnn4c3)c[nH]c2n1)C1CC1 [Compound 740, (R)-5-([1,2,4]Triazolo[1,5-a]pyridin-6-yl)-N-(1-cyclopropylethyl)-7H-pyrrolo [2,3-d]pyrimidin-2-amine] | 22 nM | 226 nM |
| FC1(F)CC(Nc2ncc3c(-c4ccc5ncnn5c4)c[nH]c3n2)C1 [Compound 744, 5-([1,2,4]Triazolo[1,5-a]pyridin-6-yl)-N-(3,3-difluorocyclobutyl)-7H-pyrrolo [2,3-d]pyrimidin-2-amine] | 6.5 nM | 213 nM |
| FC1(CNc2ncc3c(-c4ccc5ncnn5c4)c[nH]c3n2)CCC1 [Compound 745, 5-([1,2,4]Triazolo[1,5-a]pyridin-6-yl)-N-((1-fluorocyclobutyl)methyl)-7H-pyrrolo[2,3-d]pyrimidin-2-amine] | 5.1 nM | 90 nM |
| FC1(F)CCC(Nc2ncc3c(-c4ccc5ncnn5c4)c[nH]c3n2)CC1 [Compound 746, 5-([1,2,4]Triazolo[1,5-a]pyridin-6-yl)-N-(4,4-difluorocyclohexyl)-7H-pyrrolo [2,3-d]pyrimidin-2-amine] | 29.2 nM | 521 nM |
| FC1(CNc2ncc3c(-c4ccc5ncnn5c4)c[nH]c3n2)CCCCC1 [Compound 748, 5-([1,2,4]Triazolo[1,5-a]pyridin-6-yl)-N-((1-fluorocyclohexyl)methyl)-7H-pyrrolo[2,3-d]pyrimidin-2-amine] | 20 nM | 174 nM |
| FC1(F)CCC(CNc2ncc3c(-c4ccc5ncnn5c4)c[nH]c3n2)CC1 [Compound 749, 5-([1,2,4]Triazolo[1,5-a]pyridin-6-yl)-N-((4,4-difluorocyclohexyl)methyl)-7H-pyrrolo[2,3-d]pyrimidin-2-amine] | 7 nM | 80 nM |
| CN1CCC(Nc2ncc3c(-c4ccc5ncnn5c4)c[nH]c3n2)CC1 [Compound 750, 5-([1,2,4]Triazolo[1,5-a]pyridin-6-yl)-N-(1-methylpiperidin-4-yl)-7H-pyrrolo [2,3-d]pyrimidin-2-amine] | 26.9 nM | 67 nM |
| CC(C)CNc1ncc2c(-c3cc(F)c4ncnn4c3)c[nH]c2n1 [Compound 771, 5-(8-Fluoro-[1,2,4]triazolo[1,5-a]pyridin-6-yl)-N-isobutyl-7H-pyrrolo[2,3-d]pyrimidin-2-amine] | 18 nM | 470 nM |
| CC(C)(F)CNc1ncc2c(-c3ccn4ncnc4c3)c[nH]c2n1 [Compound 805, 5-([1,2,4]Triazolo[1,5-a]pyridin-7-yl)-N-(2-fluoro-2-methylpropyl)-7H-pyrrolo[2,3-d]pyrimidin-2-amine] | 11.3 nM | 439 nM |
| C[C@@H](Nc1ncc2c(-c3ccc4nnn(C)c4c3)c[nH]c2n1)C1CC1 [Compound 831, (R)—N-(1-Cyclopropylethyl)-5-(1-methyl-1H-benzo[d][1,2,3]triazol-6-yl)-7H-pyrrolo[2,3-d]pyrimidin-2-amine] | 7.3 nM | 165 nM |
| CO[C@H]1CC[C@@H](Nc2ncc3c(-c4ccc5nnn(C)c5c4)c[nH]c3n2)CC1 [Compound 838, N-(cis-4-Methoxycyclohexyl)-5-(1-methyl-1H-benzo[d][1,2,3]triazol-6-yl)-7H-pyrrolo[2,3-d]pyrimidin-2-amine] | 9.8 nM | 25 nM |
| CC(C)(F)CNc1ncc2c(-c3ccc4nccn4n3)c[nH]c2n1 [Compound 909, N-(2-Fluoro-2-methylpropyl)-5-(imidazo[1,2-b]pyridazin-6-yl)-7H-pyrrolo [2,3-d]pyrimidin-2-amine] | 3.4 nM | 40 nM |
